# In patent publication US20230285457A1, “NANOPARTICLES FOR CANCER TREATMENT” (Universidad de Guadalajara, priority 2019, published 2023):
# Experiment: Quantification of the DOX encapsulation percentage in the nanoparticle
# Format: physicochemical
# Conditions: DOX with respect to the mass of PLGA in the nanoparticles; mean ± DE, n = 3
# Description: To evaluate the DOX release profile contained in anti-GZMB PLGA/DOX/Ch/ICG NPs, firstly, the quantification of the encapsulation percentage in the nanoparticle was performed by dissolving the PLGA NPs pellet in acetone, quantifying the fluorescence intensity and interpolating fluorescence intensity against DOX standard; this assay was performed in fluorescence plates of 96-well Clear Bottom (Corning®—CLS3904) using excitation and emission at 488 and 560 nm, respectively.
compound,measurement,value
"COc1cccc2c1C(=O)c1c(O)c3c(c(O)c1C2=O)C[C@@](O)(C(=O)CO)C[C@@H]3O[C@H]1C[C@H](N)[C@H](O)[C@H](C)O1 [DOX, doxorubicin]",Encapsulation percentage (w/w),7.32 ± 1.4 percentage (w/w)
